Experimental data from US9675659B2 (Trilogy Therapeutics, Inc., priority 2015, dated 2017).
Converted amounts (≈) assume the structure as drawn. Where two headings read alike, the source gives them in different places. Starred links: 1 amine or outer side, 2 acyl side, 3 side chain; linkers in the order of their positions; H or OH if unused. Positions of bridges follow the written chain, without caps; N, C: chain ends. Non-standard residues stand in square brackets, D forms with d. Residues, ends and D or L forms follow the SMILES beside them. *: point of attachment. hTyr(3S-OH,4S-OH,3'-OSO3H) = N[C@H](C(=O)O)[C@H](O)[C@@H](O)c1ccc(O)c(OS(=O)(=O)O)c1; pTerphenylCO(4''-OnC5H11) = CCCCCOc1ccc(-c2ccc(-c3ccc(C(=O)*)cc3)cc2)cc1; Orn(4R-OH,5R-OH) = O=C([C@H](C[C@@H](O)[C@@H](O)N[*:3])N[*:1])[*:2]; hTyr(3S-OH,4S-OH) = N[C@H](C(=O)O)[C@H](O)[C@@H](O)c1ccc(O)cc1; Pro(3S-OH,4S-Me) = C[C@H]1CN[C@H](C(=O)O)[C@H]1O; X1 = CCCCCOc1ccc(-c2cc(-c3ccc(C(=O)*)cc3)no2)cc1; Gln(3R-OH) = NC(=O)C[C@@H](O)[C@H](N)C(=O)O; Hyp = O=C(O)[C@@H]1C[C@@H](O)CN1

Columns and labels:
[1] = rat, intravenous; cited from earlier work
[2] = test system: Aspergillus fumigatus; conditions: 1691 isolates; cited from earlier work
[3] = test system: Aspergillus terrus; conditions: 385 isolates; cited from earlier work
[4] = test system: Aspergillus terrus; conditions: 11 isolates; cited from earlier work
[5] = test system: Candida tropicalis; conditions: 625 isolates; cited from earlier work
[6] = test system: Aspergillus nidulans; conditions: 13 isolates; cited from earlier work
[7] = rat, 2 mg/kg, cited from earlier work
[8] = test system: Aspergillus flavus; conditions: 13 isolates; cited from earlier work
[9] = test system: Candida galbrata; conditions: 747 isolates; cited from earlier work
[10] = in vivo; conditions: Sprague-Dawley, rat
Experimental: Tissue specimens (lung, liver and kidney) were collected from three animals per time point at 0.5, 2, 24 and 48 hours and 7 days after dose administration. All tissue specimens were stored frozen at approximately −70° C. until analyzed.
In Vivo Details: Thirty Sprague-Dawley derived rats [Crl:CD®(CD)Br] were obtained from Charles River Laboratories, Inc., Wilmington, Mass., for use in this study. The rats were 52 days of age (approximately 7.5 weeks) upon arrival. One day following receipt, body weights of the rats ranged from 171 g to 213 g. The animals were held in quarantine for 7 days prior to administration of the test article. […] Before being released from quarantine, the animals were given a detailed, hand-held physical examination to ensure their health and suitability as test subjects. The test animals were approximately 8.5 weeks old at the start of the first exposure to the test article.
The resulting solution was aseptically filtered and kept refrigerated between 2-8° C. until used.
Test Article Dosing: The animals were randomized into two groups of 15 animals based on body weight.
Inhalation Exposure Methods:
All study animals surviving to scheduled necropsy were euthanized by an overdose of an intraperitoneal injection of sodium pentobarbital at 35-45 mg/kg. Tissue specimens (lung, liver and kidney) were collected from three animals per time point at 0.5, 2, 24 and 48 hours and 7 days after dose administration. All tissue specimens were stored frozen at approximately −70° C. until analyzed.
After shaking for five minutes, the sample was centrifuged at 4° C. for 10 minutes to remove precipitated proteins and supernatant was transferred to an autosampler tube, diluted with 0.5 mL of water, and vortex-mixed for instrumental analysis.
Subsequently, 100 μL of the supernatant was transferred to a 2 mL centrifuge tube and processed for analysis using the same procedure as for plasma.
Tissue results in ng were converted to g/g using the amount of tissue extracted and the final extract volume.

[11] = test system: Candida parapsilosis; conditions: 759 isolates; cited from earlier work
[12] = test system: Aspergillus niger; conditions: 10 isolates; cited from earlier work
[13] = test system: Aspergillus nidulans; conditions: 192 isolates; cited from earlier work
[14] = test system: Candida guilliermondii; conditions: 61 isolates; cited from earlier work
[15] = test system: Aspergillus versicolor; conditions: 75 isolates; cited from earlier work
[16] = test system: Aspergillus flavus; conditions: 432 isolates; cited from earlier work
[17] = test system: Candida krusei; conditions: 136 isolates; cited from earlier work
[18] = test system: Aspergillus niger; conditions: 440 isolates; cited from earlier work
[19] = test system: Candida albicans; conditions: 2869 isolates; cited from earlier work
[20] = test system: Aspergillus fumigatus; conditions: 56 isolates; cited from earlier work
[21] = Toxicology observations in the rat inhalation/IV study (mortality, clinical signs, body weight, necropsy); type: in vivo; conditions: male rats, nose-only inhalation or intravenous injection, 2 mg/kg
Experimental: A detailed, hand-held physical examination was conducted on all animals once during the quarantine period (prior to randomization). During the treatment period, the animals were observed daily for mortality or evidence of moribundity; these checks were separated by a minimum of four hours. Daily cage-side clinical observations were conducted during exposure, and daily hand-held clinical observations were conducted before and after exposure. Observations included, but were not limited to the following: changes in the skin and fur, eyes, and mucous membranes; effects on the respiratory, circulatory, autonomic and central nervous systems; and effects on somatomotor activity and behavior pattern.
Body Weights and Body Weight Changes: Body weights were determined one day after animal receipt; at randomization; and prior to exposure on Study Day 1, 2, 3 and 7 (as applicable based on scheduled euthanization).

[22] = cited from earlier work

CCCCCOc1ccc(-c2cc(-c3ccc(C(=O)N[C@H]4C[C@@H](O)[C@@H](O)NC(=O)[C@@H]5[C@@H](O)[C@@H](C)CN5C(=O)[C@H]([C@H](O)CC(N)=O)NC(=O)[C@H]([C@H](O)[C@@H](O)c5ccc(O)c(OS(=O)(=O)O)c5)NC(=O)[C@@H]5C[C@@H](O)CN5C(=O)[C@H]([C@@H](C)O)NC4=O)cc3)no2)cc1 [micafungin] (X1-[Orn(4R-OH,5R-OH)]T[Hyp][hTyr(3S-OH,4S-OH,3'-OSO3H)][Gln(3R-OH)][Pro(3S-OH,4S-Me)]; lactam 1-C)
exposure in kidney relative to plasma [1]: 3.4 fold | exposure in liver relative to plasma [1]: 1.6 fold | exposure in lung relative to plasma [1]: 2.9 fold

CC[C@H](C)C[C@H](C)CCCCCCCCC(=O)N[C@H]1C[C@@H](O)[C@@H](NCCN)NC(=O)[C@@H]2[C@@H](O)CCN2C(=O)[C@H]([C@H](O)CCN)NC(=O)[C@H]([C@H](O)[C@@H](O)c2ccc(O)cc2)NC(=O)[C@@H]2C[C@@H](O)CN2C(=O)[C@H]([C@@H](C)O)NC1=O [Caspofungin, caspofungin]
MEC Average (Mode, most frequent MEC) [2]: 0.25 µg/mL | MEC Range [2]: 0.016 to 32 µg/mL | MEC Average (Mode, most frequent MEC) [3]: 0.06 µg/mL | MEC Range [3]: 0.016 to 2 µg/mL | MIC90 Average (Geometric Mean MIC) [4]: 0.12 mg/L (≈ 0.11 µM) | MIC90 Range [4]: 0.06 to .2 mg/L | MIC90 [5]: 0.06 mg/L (≈ 0.0549 µM) | MIC90 Average (Geometric Mean MIC) [6]: 0.44 mg/L (≈ 0.402 µM) | MIC90 Range [6]: 0.2 to 4 mg/L | Kidney concentration, Stone 2004 (radiolabeled compound) ([7]; 0.5 h): 9.15 µg/g | Liver concentration, Stone 2004 (radiolabeled compound) ([7]; 0.5 h): 5.03 µg/g | Lung concentration, Stone 2004 (radiolabeled compound) ([7]; 0.5 h): 5.12 µg/g | Plasma concentration, Stone 2004 (radiolabeled compound) ([7]; 0.5 h): 11 µg/mL | Kidney concentration, Stone 2004 (radiolabeled compound) ([7]; 2 h): 10.60 µg/g | Liver concentration, Stone 2004 (radiolabeled compound) ([7]; 2 h): 7.04 µg/g | Lung concentration, Stone 2004 (radiolabeled compound) ([7]; 2 h): 4.50 µg/g | Plasma concentration, Stone 2004 (radiolabeled compound) ([7]; 2 h): 6.1 µg/mL | Kidney concentration, Stone 2004 (radiolabeled compound) ([7]; 24 h): 11.40 µg/g | Liver concentration, Stone 2004 (radiolabeled compound) ([7]; 24 h): 22.20 µg/g | Lung concentration, Stone 2004 (radiolabeled compound) ([7]; 24 h): 2.44 µg/g | Plasma concentration, Stone 2004 (radiolabeled compound) ([7]; 24 h): 1.74 µg/mL | MIC90 Average (Geometric Mean MIC) [8]: 0.2 mg/L (≈ 0.183 µM) | MIC90 Range [8]: 0.06 to 2 mg/L | MIC90 [9]: 0.12 mg/L (≈ 0.11 µM) | concentration at 0.5 h ([10]; kidney, inhaled, 2 mg/kg): 160 ng/g | concentration at 2 h ([10]; kidney, inhaled, 2 mg/kg): 160 ng/g | concentration at 24 h ([10]; kidney, inhaled, 2 mg/kg): 160 ng/g | concentration at 48 h ([10]; kidney, inhaled, 2 mg/kg): 120 ng/g | concentration at 168 h ([10]; kidney, inhaled, 2 mg/kg): 20 ng/g | concentration at 0.5 h ([10]; kidney, iv, 2 mg/kg): 500 ng/g | concentration at 2 h ([10]; kidney, iv, 2 mg/kg): 670 ng/g | concentration at 24 h ([10]; kidney, iv, 2 mg/kg): 500 ng/g | concentration at 0.5 h ([10]; liver, inhaled, 2 mg/kg): 90 ng/g | concentration at 2 h ([10]; liver, inhaled, 2 mg/kg): 130 ng/g | concentration at 24 h ([10]; liver, inhaled, 2 mg/kg): 300 ng/g | concentration at 48 h ([10]; liver, inhaled, 2 mg/kg): 180 ng/g | concentration at 168 h ([10]; liver, inhaled, 2 mg/kg): 20 ng/g | concentration at 0.5 h ([10]; liver, iv, 2 mg/kg): 250 ng/g | concentration at 2 h ([10]; liver, iv, 2 mg/kg): 310 ng/g | concentration at 24 h ([10]; liver, iv, 2 mg/kg): 660 ng/g | concentration at 0 h ([10]; lung, inhaled, 2 mg/kg): 10800 ng/g | concentration at 0.5 h ([10]; lung, inhaled, 2 mg/kg): 10800 ng/g | concentration at 2 h ([10]; lung, inhaled, 2 mg/kg): 10400 ng/g | concentration at 24 h ([10]; lung, inhaled, 2 mg/kg): 5310 ng/g | concentration at 39 h ([10]; lung, inhaled, 2 mg/kg): 5420 ng/g | concentration at 48 h ([10]; lung, inhaled, 2 mg/kg): 3370 ng/g | concentration at 78 h ([10]; lung, inhaled, 2 mg/kg): 2710 ng/g | concentration at 117 h ([10]; lung, inhaled, 2 mg/kg): 1350 ng/g | concentration at 156 h ([10]; lung, inhaled, 2 mg/kg): 680 ng/g | concentration at 168 h ([10]; lung, inhaled, 2 mg/kg): 390 ng/g | concentration at 195 h ([10]; lung, inhaled, 2 mg/kg): 340 ng/g | concentration at 273 h ([10]; lung, inhaled, 2 mg/kg): 80 ng/g | concentration at 312 h ([10]; lung, inhaled, 2 mg/kg): 40 ng/g | concentration at 351 h ([10]; lung, inhaled, 2 mg/kg): 20 ng/g | concentration at 0 h ([10]; lung, inhaled, 7.2 mg/kg): 39000 ng/g | concentration at 39 h ([10]; lung, inhaled, 7.2 mg/kg): 19500 ng/g | concentration at 78 h ([10]; lung, inhaled, 7.2 mg/kg): 9750 ng/g | concentration at 117 h ([10]; lung, inhaled, 7.2 mg/kg): 4880 ng/g | concentration at 156 h ([10]; lung, inhaled, 7.2 mg/kg): 2440 ng/g | concentration at 195 h ([10]; lung, inhaled, 7.2 mg/kg): 1220 ng/g | concentration at 273 h ([10]; lung, inhaled, 7.2 mg/kg): 300 ng/g | concentration at 312 h ([10]; lung, inhaled, 7.2 mg/kg): 150 ng/g | concentration at 351 h ([10]; lung, inhaled, 7.2 mg/kg): 80 ng/g | concentration at 0.5 h ([10]; lung, iv, 2 mg/kg): 590 ng/g | concentration at 2 h ([10]; lung, iv, 2 mg/kg): 540 ng/g | concentration at 24 h ([10]; lung, iv, 2 mg/kg): 180 ng/g | concentration at 48 h ([10]; lung, iv, 2 mg/kg): 90 ng/g | concentration at 168 h ([10]; lung, iv, 2 mg/kg): 0 ng/g | concentration at 0.5 h ([10]; plasma, inhaled, 2 mg/kg): 2.03 µg/mL | concentration at 24 h ([10]; plasma, inhaled, 2 mg/kg): 0.23 µg/mL | concentration at 48 h ([10]; plasma, inhaled, 2 mg/kg): 0.08 µg/mL | concentration at 168 h ([10]; plasma, inhaled, 2 mg/kg): 0 µg/mL | concentration at 0.5 h ([10]; plasma, iv, 2 mg/kg): 11 µg/mL | concentration at 2 h ([10]; plasma, iv, 2 mg/kg): 7.72 µg/mL | concentration at 24 h ([10]; plasma, iv, 2 mg/kg): 0.8 µg/mL | MIC90 [11]: 2 mg/L (≈ 1.83 µM) | MIC90 Average (Geometric Mean MIC) [12]: 0.14 mg/L (≈ 0.128 µM) | MIC90 Range [12]: 0.06 to 0.5 mg/L | MEC Average (Mode, most frequent MEC) [13]: 0.12 µg/mL | MEC Range [13]: 0.032 to 16 µg/mL | MIC90 [14]: 2 mg/L (≈ 1.83 µM) | MEC Average (Mode, most frequent MEC) [15]: 0.12 µg/mL | MEC Range [15]: 0.032 to 2 µg/mL | MEC Average (Mode, most frequent MEC) [16]: 0.06 µg/mL | MEC Range [16]: 0.016 to 32 µg/mL | MIC90 [17]: 0.06 mg/L (≈ 0.0549 µM) | MEC Average (Mode, most frequent MEC) [18]: 0.06 µg/mL | MEC Range [18]: 0.016 to 2 µg/mL | MIC90 [19]: 0.06 mg/L (≈ 0.0549 µM) | MIC90 Average (Geometric Mean MIC) [20]: 0.25 mg/L (≈ 0.229 µM) | MIC90 Range [20]: 0.12 to 4 mg/L | clinical signs of toxicity [21]: no clinical signs of toxicity | effects on body weight [21]: no effects on body weight | gross necropsy findings [21]: no gross necropsy findings attributable to exposure to the test article | test-article related mortality [21]: no test-article related mortality

CCCCCOc1ccc(-c2ccc(-c3ccc(C(=O)N[C@H]4C[C@@H](O)[C@@H](O)NC(=O)[C@@H]5[C@@H](O)[C@@H](C)CN5C(=O)[C@H]([C@@H](C)O)NC(=O)[C@H]([C@H](O)[C@@H](O)c5ccc(O)cc5)NC(=O)[C@@H]5C[C@@H](O)CN5C(=O)[C@H]([C@@H](C)O)NC4=O)cc3)cc2)cc1 [anidulafungin] ({pTerphenylCO(4''-OnC5H11)}-[Orn(4R-OH,5R-OH)]T[Hyp][hTyr(3S-OH,4S-OH)]T[Pro(3S-OH,4S-Me)]; lactam 1-C)
time levels are maintained above MICs for common pathogens ([22]; rat tissues): ≥ 72 h | exposure in tissues (liver, lung, spleen, kidney) relative to plasma ([22]; rat): 9-12 fold | time to peak concentrations in tissues ([22]; rat): ≤ 30 min
